Earlier results on 54 substances are cited in patent US8618066B1 (priority 2003, dated 2013).

“Also recorded” adds a separate entry of the source. Where two headings read alike, the source gives them in different places. No end group written: not given here.

The data set has as its system Gram+ & Gram− bacteria, fungi, virus, mammalian/cancer cells. The note with it: cited from earlier work.
Where [1] appears, read: classes of organisms/cells the peptide is active against.

For the substance “Cecropin A: peptide, source Nocutuid moth (RWKVFKKIEKVGRNIRDGVIKAAPAIEVLGQAKAL; Cecropin A; listed as Heliothis virescens)”, the Activity result is on record as “Gram+ & Gram−, Fungi”.
“AMP1 (MJ-AMP1): peptide, source Garden four-o'clock (QCIGNGGRCNENVGPPYCCSGFCLRQPGQGYGYCKNR; antimicrobial peptidic agent1 (MJ-antimicrobial peptidic agent1); listed as Mirabilis jalapa)”: the Activity result is given as “Gram+, Fungi”.
Regarding “Protegrin 4: peptide, source Pig (RGGRLCYCRGWICFCVGR; Protegrin 4; listed as Sus scrofa)”, the Activity result is given as “Gram+ & Gram−, Virus, Fungi”.
On to “Hepcidin 25: peptide, source Human (DTHFPICIFCCGCCHRSKCGMCCKT; Hepcidin 25; listed as Homo sapiens)”, for which the Activity result is “Fungi”.
As to Melittin B, the Activity entry under setting [1] is “Gram+ & Gram−, Fungi,; also recorded: Mammalian cells”.
Turning to “Hexapeptide: peptide, source Bovine (RRWQWR; hexapeptide; listed as Bos taurus)”, the Activity entry is reported as “Gram+ & Gram−, Virus, Fungi,”.
For the substance “Ranatuerin-2CB: peptide, source Green frog (GLFLDTLKGLAGKLLQGLKCIKAGCKP; Rana clamitans; Ranatuerin-2CB)”, the Activity result is recorded as “Gram+ & Gram−, Fungi”.
Turning to “AFP1: peptide, source Turnip (QKLCERPSGTWSGVCGNNNACKNQCIN; AFP1; listed as Brassica rapa)”, the Activity entry is recorded as “Fungi”.
Regarding HNP-1 Defensin: peptide, source Human, the Activity entry was “Gram+ & Gram−, Virus, Fungi”.
Regarding HNP-3 Defensin: peptide, source Human, the Activity entry was “Gram+ & Gram−, Virus, Fungi”.
For “Ranalexin-1CB: peptide, source Gree frog (FLGGLMKAFPAIICAVTKKC; Rana clamitans; Ranalexin-1CB)”, the Activity entry is given as “Gram+ & Gram−, Fungi”.
For the substance “SEQ ID No. 189: synthetic antifungal peptide, Table 1 (QWCRIHGQSCW; listed as Neurospora crassa)”, the Activity result is reported as “Fungi”.
As for “HNP-2 Defensin: peptide, source Human (CYCRIPACIAGERRYGTCIYQGRLWAFCC; HNP-2 Defensin; listed as Homo sapiens)”, the Activity result was “Gram+ & Gram−, Virus, Fungi”.
Regarding FRLKHI [SEQ ID No. 198], the Activity entry is given as “Gram+ & Gram−, Fungi”.
With “SEQ ID No. 180: synthetic antifungal peptide, Table 1 (YNLEDHPQGDHPKLQLWHW)”, the Activity result is “Fungi”.
Take “SEQ ID No. 46: synthetic antifungal peptide, Table 1 (QFKLRF)”: the Activity result is “Fungi”.
As for “Pseudin 1: peptide, source Paradoxical frog (GLNTLKKVFQGLHEAIKLINNHVQ; Pseudin 1; listed as Pseudis paradoxa)”, the Activity entry is “Gram+ & Gram−, Fungi”.
On to FRLKFHF [SEQ ID No. 197], for which the Activity entry is “Gram+ & Gram−, Fungi”.
Regarding RQRVEELSKFSKKGAAARRRK [Misgurin], the Activity entry is on record as “Gram+ & Gram−, Fungi”.
“SEQ ID No. 178: synthetic antifungal peptide, Table 1 (WHWLQLKPGQPMY; listed as Saccharomyces cerevisiae)”: the Activity result is “Fungi”.
Consider “SEQ ID No. 184: synthetic antifungal peptide, Table 1 (YMPQGPRLNLWHW)”, for which the Activity entry is recorded as “Fungi”.
Turning to “SEQ ID No. 179: synthetic antifungal peptide, Table 1 (WHWLSFSKGQPMY; listed as Saccharomyces kluyveri)”, the Activity result was “Fungi”.
For “SEQ ID No. 26: synthetic antifungal peptide, Table 1 (LRF)”, the Activity result is “Fungi”.
With “RatNP-3: peptide, source Rat (CSCRTSSCRFGERLSGACRLNGRIYRLCC; RatNP-3; listed as Rattus norvegicus)”, the Activity result is reported as “Gram+ & Gram−, Virus, Fungi”.
As for “PW2: peptide, source Synthetic (HPLKQYWWRPSI; Synthetic PW2)”, the Activity entry was “Fungi”.
“BMAP-34: peptide, source Bovine (GLFRRLRDSIRRGQQKILEKARRIGERIKDIFRG; BMAP-34; listed as Bos taurus)”: the Activity entry is “Gram+ & Gram−, Fungi”.
With “SEQ ID No. 30: synthetic antifungal peptide, Table 1 (WLRF)”, the Activity entry is listed as “Fungi”.
As to “SEQ ID No. 182: synthetic antifungal peptide, Table 1 (YMPQGPKLQLFHW)”, the Activity entry is recorded as “Fungi”.
Consider “SEQ ID No. 28: synthetic antifungal peptide, Table 1 (HRF)”, for which the Activity entry is “Fungi”.
For “SEQ ID No. 31: synthetic antifungal peptide, Table 1 (FHLRF)”, the Activity result is on record as “Fungi”.
For the substance “NP-3A defensin: peptide, source Rabbit (GICACRRRFCPNSERFSGYCRVNGARYVRCCSRR; NP-3A defensin; listed as Oryctolagus cuniculus)”, the Activity result is “Gram+ & Gram−, Virus, Fungi”.
Consider “Histone H2b-3 (HLP-3) (Fragment): source Rainbow trout (PDPAKTAPKKKSKKAVT; Oncorhynchus mykiss; Histone H2B-3(HLP-3)(Fragment))”, for which the Activity entry is recorded as “Fungi”.
With “PN-AMP: peptide, source Japenese morning glory”, the Activity entry is reported as “Gram+, Fungi”.
As for “Histatin 1: peptide, source Crab eating macaque (DSHEERHHGRHGHHKYGRKFHEKHHSHRGYRSNYLYDN; Histatin 1; listed as Macaca fascicularis)”, the Activity result is on record as “Gram+ & Gram−, Fungi”.
Take “Dolabellanin B2: peptide, source Sea hare (SHQDCYEALHKCMASHSKPFSCSMKFHMCLQQQ; Dolabellanin B2; listed as Dolabella auricularia)”: the Activity entry is “Gram+ & Gram−, Fungi”.
“SEQ ID No. 25: synthetic antifungal peptide, Table 1 (FRF)”: the Activity result is “Fungi”.
For “SEQ ID No. 43: synthetic antifungal peptide, Table 1 (SFKLRF)”, the Activity entry is recorded as “Fungi”.
Consider “Ranatuerin-2CA: peptide, source Green frog (GLFLDTLKGAAKDVAGKLLEGLKCKIAGCKP; Rana clamitans; Ranatuerin-2CA)”, for which the Activity entry is reported as “Gram+ & Gram−, Fungi”.
In the case of “Lactoferrin (Lf) peptide 2: antimicrobial peptide, Table 1 (FKCRRWQWRM; lactoferrin (Lf) peptide 2)”, the Activity result was “Fungi”.
For the substance “SEQ ID No. 44: synthetic antifungal peptide, Table 1 (MFKLRF)”, the Activity result is “Fungi”.
As for “SEQ ID No. 39: synthetic antifungal peptide, Table 1 (FHFKLRF)”, the Activity entry was “Fungi”.
For “Neutrophil defensin 3 (HANP-3): peptide, source Golden hamster (VTCFCRRRGCASRERLIGYCRFGNTIYGLCCRR; Neutrophil defensin 3 (HANP-3); listed as Mesocricetus auratus)”, the Activity entry was “Gram+, Fungi”.
For “Tachystatin A: peptide, source Horseshoe Crab (YSRCQLQGFNCVVRSYGLPTIPCCRGLTCRSYFPGSTYGRCQRY; Tachystatin A Peptide; listed as Tachypleus tridentatus)”, the Activity entry was “Gram+ & Gram−, Fungi”.
As for “Aurein 1.1: peptide, source Southern bell frog (GLFDIIKKIAESI; Aurein 1.1; listed as Litoria raniformis)”, the Activity result is “Gram+ & Gram−, Fungi”.
Turning to “Sativum defensin 1 (psd1): peptide, source Seed of Pea (KTCEHLADTYRGVCFTNASCDDHCKNKAHLISGTCHNWKCFCTQNC; Seed of pea defensin 1 (psd1); listed as Pisum sativum)”, the Activity result is recorded as “Fungi”.
In the case of “Neutrophil defensin 1 (HANP-1): peptide, source Golden hamster (VTCFCRRRGCASRERHIGYCRFGNTIYRLCCRR; Neutrophil defensin 1 (HANP-1); listed as Mesocricetus auratus)”, the Activity entry is recorded as “Gram+, Fungi”.
Regarding “SEQ ID No. 32: synthetic antifungal peptide, Table 1 (FFKLRF)”, the Activity result is listed as “Fungi”.
Consider “MBP-1: peptide, source Maize (RSGRGECRRQCLRRHEGQPWETQECMRRCRRRG; Zea mays; MBP-1)”, for which the Activity entry is listed as “Gram+ & Gram−, Fungi”.
For the substance “Histatin 3: peptide, source Human (DSHAKRHHGYKRKFHEKHHSHRGYRSNYLYDN; Histatin 3; listed as Homo sapiens)”, the Activity entry is given as “Gram+ & Gram−, Fungi”.
Regarding “Opistoporin 2: peptide, source African yellow leg scorpion (GKVWDWIKSTAKKLWNSEPVKELKNTALNAAKNFVAEKIGATPS; Opistoporin 2; listed as Opistophthalmus carinatus)”, the Activity entry under setting [1] is reported as “Gram+ & Gram−, Fungi,; also recorded: Mammalian cells”.
Regarding “GNCP-1: peptide, source Guinea pig (RRCICTTRTCRFPYRRLGTCIFQNRVYTFCC; GNCP-1; listed as Cavia cutleri)”, the Activity result is given as “Gram+ & Gram−, Virus, Fungi”.
For “Buforin I: peptide, source Asian toad (AGRGKQGGKVRAKAKTRSSRAGLQFPVGRVHRLLRKGNY; Bufo bufo gargarizans; Buforin 1)”, the Activity result is given as “Gram+ & Gram−, Fungi”.
As for “GNCP-2: peptide, source Guinea pig (RCICTTRTCRFPYRRLGTCLFQNRVYTFCC; GNCP-2; listed as Cavia cutleri)”, the Activity entry was “Gram+ & Gram−, Virus, Fungi”.
As to “Cecropin B: peptide, source Chinese oak silk moth (KWKIFKKIEKVGRNIRNGIIKAGPAVAVLGEAKAL; Cecropin B; listed as Antheraea pernyi)”, the Activity result is given as “Gram+ & Gram−, Fungi”.
